Assay results reported in publication PMC12866986 (European journal of medicinal chemistry, 2026).
Several values for one entry are separate records, joined by “and”; a condition that tells them apart may be missing. Identical values can stand only once.

Target: FAK (Homo sapiens, UniProt Q05397)
Conditions: 100 nM; 1 h; relative to vehicle control; n = 8 measurements

Chain of FAK (Q05397 whole entry): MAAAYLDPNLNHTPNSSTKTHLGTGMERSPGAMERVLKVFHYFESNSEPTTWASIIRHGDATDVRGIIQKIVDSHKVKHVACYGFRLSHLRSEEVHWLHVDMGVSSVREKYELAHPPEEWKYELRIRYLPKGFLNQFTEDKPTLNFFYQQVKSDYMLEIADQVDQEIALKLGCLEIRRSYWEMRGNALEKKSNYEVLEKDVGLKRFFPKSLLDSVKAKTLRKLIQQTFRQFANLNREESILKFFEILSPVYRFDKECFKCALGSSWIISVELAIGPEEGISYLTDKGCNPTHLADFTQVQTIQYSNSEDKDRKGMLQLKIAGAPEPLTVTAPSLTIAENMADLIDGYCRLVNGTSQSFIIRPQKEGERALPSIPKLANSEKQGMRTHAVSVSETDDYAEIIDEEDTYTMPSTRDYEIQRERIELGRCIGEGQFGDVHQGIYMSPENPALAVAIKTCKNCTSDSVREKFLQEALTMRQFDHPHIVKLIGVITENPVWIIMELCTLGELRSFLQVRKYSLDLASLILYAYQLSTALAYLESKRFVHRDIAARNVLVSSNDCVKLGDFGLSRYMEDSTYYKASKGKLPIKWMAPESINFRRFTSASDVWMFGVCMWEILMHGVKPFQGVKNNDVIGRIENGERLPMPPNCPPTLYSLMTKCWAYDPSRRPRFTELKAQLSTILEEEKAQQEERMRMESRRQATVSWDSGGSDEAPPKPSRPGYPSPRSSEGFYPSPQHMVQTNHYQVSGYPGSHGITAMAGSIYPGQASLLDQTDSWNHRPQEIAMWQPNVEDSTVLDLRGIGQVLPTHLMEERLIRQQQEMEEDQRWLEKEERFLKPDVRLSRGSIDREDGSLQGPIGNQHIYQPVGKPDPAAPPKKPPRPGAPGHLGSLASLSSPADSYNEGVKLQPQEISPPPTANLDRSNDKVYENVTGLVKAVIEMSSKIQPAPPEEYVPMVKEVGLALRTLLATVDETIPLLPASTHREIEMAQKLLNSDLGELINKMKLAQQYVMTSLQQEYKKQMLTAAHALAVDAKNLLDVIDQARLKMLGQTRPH

| FAK-Tyr-397/FAK fold change, ± SEM | Structure (SMILES) |
| --- | --- |
| 0.97±0.08 fold change | COCCNC(=O)C(Cc1ccncc1)NC(=O)Nc1cc(C(F)(F)F)ccc1N1CCOCC1 (stereo not shown) [Compound 9b, N-(2-Methoxyethyl)-2-(3-(2-morpholino-5-(trifluoromethyl)phenyl)ureido)-3-(pyridin-4-yl)propanamide] |
| 1.12±0.03 fold change | CN(C)C(CNC(=O)Nc1cc(OC(F)(F)F)ccc1N1CCOCC1)c1ccncc1 (stereo not shown) [Compound 10g, 1-(2-(Dimethylamino)-2-(pyridin-4-yl)ethyl)-3-(2-morpholino-5-(trifluoromethoxy)phenyl)urea] |
| 1.2±0.08 fold change | CN(C)C(CNC(=O)Nc1cc(C(F)F)ccc1N1CCOCC1)c1ccncc1 (stereo not shown) [Compound 10f, 1-(5-(Difluoromethyl)-2-morpholinophenyl)-3-(2-(dimethylamino)-2-(pyridin-4-yl)ethyl)urea] |
| 0.82±0.06 fold change | CN(C)C(CNC(=O)Nc1cc(Cl)ccc1N1CCOCC1)c1ccncc1 (stereo not shown) [Compound 10e, 1-(5-Chloro-2-morpholinophenyl)-3-(2-(dimethylamino)-2-(pyridin-4-yl)ethyl)urea] |
| 1.03±0.08 fold change | COC(=O)C(Cc1ccncc1)NC(=O)Nc1cc(C(F)(F)F)ccc1N1CCOCC1 (stereo not shown) [Compound 9a, Methyl 2-(3-(2-Morpholino-5-(trifluoromethyl)phenyl)ureido)-3-(pyridin-4-yl)propanoate] |
| 1.13±0.1 fold change | COCCOCCOCCOc1ccc(N2CCOCC2)c(NC(=O)NCC(c2ccncc2)N(C)C)c1 (stereo not shown) [Compound 10l, 1-(2-(Dimethylamino)-2-(pyridin-4-yl)ethyl)-3-(5-(2-(2-(2-methoxyethoxy)ethoxy)ethoxy)-2-morpholinophenyl)urea] |
| 1.29±0.07 fold change | COc1ccc(N2CCOCC2)c(NC(=O)NCC(c2ccncc2)N(C)C)c1 (stereo not shown) [Compound 10h, 1-(2-(Dimethylamino)-2-(pyridin-4-yl)ethyl)-3-(5-methoxy-2-morpholinophenyl)urea] |
| 0.93±0.1 fold change | CN(C)C(CNC(=O)Nc1cc(OCCOCCO)ccc1N1CCOCC1)c1ccncc1 (stereo not shown) [Compound 10m, 1-(2-(Dimethylamino)-2-(pyridin-4-yl)ethyl)-3-(5-(2-(2-hydroxyethoxy)ethoxy)-2-morpholinophenyl)urea] |
| 1.05±0.1 fold change | COCCOc1ccc(N2CCOCC2)c(NC(=O)NCC(c2ccncc2)N(C)C)c1 (stereo not shown) [Compound 10j, 1-(2-(Dimethylamino)-2-(pyridin-4-yl)ethyl)-3-(5-(2-methoxyethoxy)-2-morpholinophenyl)urea] |
| 1.23±0.07 fold change | CN(C)C(CNC(=O)Nc1ccccc1N1CCOCC1)c1ccncc1 (stereo not shown) [Compound 10a, 1-(2-(Dimethylamino)-2-(pyridin-4-yl)ethyl)-3-(2-morpholinophenyl)urea] |
| 0.89±0.05 fold change | Cc1ccc(N2CCOCC2)c(NC(=O)NCC(c2ccncc2)N(C)C)c1 (stereo not shown) [Compound 10c, 1-(2-(Dimethylamino)-2-(pyridin-4-yl)ethyl)-3-(5-methyl-2-morpholinophenyl)urea] |
| 1.28±0.1 fold change | COCOc1ccc(N2CCOCC2)c(NC(=O)NCC(c2ccncc2)N(C)C)c1 (stereo not shown) [Compound 10i, 1-(2-(Dimethylamino)-2-(pyridin-4-yl)ethyl)-3-(5-(methoxymethoxy)-2-morpholinophenyl)urea] |
| 0.83±0.07 fold change | CN(C)C(CNC(=O)Nc1cc(C#N)ccc1N1CCOCC1)c1ccncc1 (stereo not shown) [Compound 10d, 1-(5-Cyano-2-morpholinophenyl)-3-(2-(dimethylamino)-2-(pyridin-4-yl)ethyl)urea] |

| Structure (SMILES) | FAK-Tyr-397/FAK fold change, ± SEM |
| --- | --- |
| CN(C)C(CNC(=O)Nc1cc(C(F)(F)F)ccc1N1CCOCC1)c1cccnc1.Cl (stereo not shown) [Compound 5bHCl, 1-(2-(Dimethylamino)-2-(pyridin-3-yl)ethyl)-3-(2-morpholino-5-(trifluoromethyl)phenyl)urea hydrochloric salt] | 1.05±0.06 fold change |
| Cl.O=C(NCCc1ccncc1)Nc1cc(C(F)(F)F)ccc1N1CCOCC1 [Compound 7HCl, 1-(2-Morpholino-5-(trifluoromethyl)phenyl)-3-(2-(pyridin-4-yl)ethyl)urea hydrochloric salt] | 0.91±0.13 fold change |
| CN(C)C(CNC(=O)Nc1cc(F)ccc1N1CCOCC1)c1ccncc1 (stereo not shown) [Compound 10b, 1-(2-(Dimethylamino)-2-(pyridin-4-yl)ethyl)-3-(5-fluoro-2-morpholinophenyl)urea] | 1.12 fold change and 1.12±0.05 fold change |
| CC(C)(CNC(=O)Nc1cc(C(F)(F)F)ccc1N1CCOCC1)c1ccncc1 [Compound 6, 1-(2-Methyl-2-(pyridin-4-yl)propyl)-3-(2-morpholino-5-(trifluoromethyl)phenyl)urea] | 1.09±0.12 fold change |
| CN(C)C(CNC(=O)Nc1cc(C(F)(F)F)ccc1N1CCOCC1)c1cccnc1 (stereo not shown) [Compound 5b, 1-(2-(Dimethylamino)-2-(pyridin-3-yl)ethyl)-3-(2-morpholino-5-(trifluoromethyl)phenyl)urea] | 1.0±0.04 fold change |
| Cl.O=C(NCCc1cnccn1)Nc1cc(C(F)(F)F)ccc1N1CCOCC1 [Compound 8HCl, 1-(2-Morpholino-5-(trifluoromethyl)phenyl)-3-(2-(pyrazin-2-yl)ethyl)urea hydrochloric salt] | 1.05±0.07 fold change |
| COCCOCCOc1ccc(N2CCOCC2)c(NC(=O)NCC(c2ccncc2)N(C)C)c1 (stereo not shown) [Compound 10k, 1-(2-(Dimethylamino)-2-(pyridin-4-yl)ethyl)-3-(5-(2-(2-methoxyethoxy)ethoxy)-2-morpholinophenyl)urea] | 1.32±0.03 fold change |
| CN(C)C(CNC(=O)Nc1cc(C(F)(F)F)ccc1N1CCOCC1)c1ccccn1 (stereo not shown) [Compound 5c, 1-(2-(Dimethylamino)-2-(pyridin-2-yl)ethyl)-3-(2-morpholino-5-(trifluoromethyl)phenyl)urea] | 0.84±0.11 fold change |
| CC(C)(CNC(=O)Nc1cc(C(F)(F)F)ccc1N1CCOCC1)c1ccncc1.Cl [Compound 6HCl, 1-(2-Methyl-2-(pyridin-4-yl)propyl)-3-(2-morpholino-5-(trifluoromethyl)phenyl)urea hydrochloric salt] | 1.11±0.12 fold change |
| O=C(NCCc1ccncc1)Nc1cc(C(F)(F)F)ccc1N1CCOCC1 [Compound 7, 1-(2-Morpholino-5-(trifluoromethyl)phenyl)-3-(2-(pyridin-4-yl)ethyl)urea] | 0.98±0.07 fold change |
| O=C(NCCc1cnccn1)Nc1cc(C(F)(F)F)ccc1N1CCOCC1 [Compound 8, 1-(2-Morpholino-5-(trifluoromethyl)phenyl)-3-(2-(pyrazin-2-yl)ethyl)urea] | 0.93±0.08 fold change |
| CN(C)C(CNC(=O)Nc1cc(C(F)(F)F)ccc1N1CCOCC1)c1ccccn1.Cl (stereo not shown) [Compound 5cHCl, 1-(2-(Dimethylamino)-2-(pyridin-2-yl)ethyl)-3-(2-morpholino-5-(trifluoromethyl)phenyl)urea hydrochloric salt] | 0.98±0.07 fold change |
